For data set [1], the target named is T1, serotonin 5-HT3 receptor (Homo sapiens, UniProt P46098).
T1 construct: expressed in transfected cells; host or cells: HEK-293 cells (membrane fraction)
T1 sequence (P46098 24-478): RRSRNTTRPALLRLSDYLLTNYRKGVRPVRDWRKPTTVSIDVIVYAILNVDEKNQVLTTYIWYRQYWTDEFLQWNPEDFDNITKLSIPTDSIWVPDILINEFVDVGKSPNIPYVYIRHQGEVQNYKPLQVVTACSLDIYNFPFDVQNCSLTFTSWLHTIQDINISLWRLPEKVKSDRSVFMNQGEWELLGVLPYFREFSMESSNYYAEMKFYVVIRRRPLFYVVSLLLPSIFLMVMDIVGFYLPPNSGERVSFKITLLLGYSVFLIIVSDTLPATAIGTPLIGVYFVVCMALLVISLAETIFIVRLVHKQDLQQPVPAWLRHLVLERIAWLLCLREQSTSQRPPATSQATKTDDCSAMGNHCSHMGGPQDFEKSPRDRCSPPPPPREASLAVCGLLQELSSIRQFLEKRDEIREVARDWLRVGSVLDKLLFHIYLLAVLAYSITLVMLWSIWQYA
The experiment in a line: Serotonin 5-HT3 receptor binding affinity ([3H]-GR-65630 binding inhibition). As to conditions: 1 μM test compound, membrane fraction from HEK-293 cells; for inhibition at 1 µM: read-out: [3H]-GR65630 binding inhibition rate at 1 μM. The protocol:
Serotonin 5-HT3 receptor binding affinities of the urea derivatives of the present invention and typical compounds among known urea derivatives, N-phenyl-4-methylpiperazine-1-carboxyamide (A), N-(4,5-dichlorophenyl)-4-methylppiperazine-1-carboxyamide (B), N-(3,5-trifluoromethylphenyl)-4-methylpiperazine-1-carboxyamide (C), N-(3-fluorophenyl)-4-methylpiperazine-1-carboxyamide (D) and N-(5-chloro-2-methoxyphenyl)-(4-tert-butyloxycarbonylpiperazine)-1-carboxyamide (E), were determined by the following method, and the results are shown in Table 1. The test compounds of the present invention are mentioned with the example numbers.
According to the method of Boess et al. (Neuropharmacology, 36, 637-647, 1997), affinities were examined by using a membrane fraction obtained from HEK-293 cells and a ligand selective to the serotonin 5-HT3 receptor, [3H]-GR-65630 [3-(5-methyl-1H-imidazol-4-yl)-1-(1-methyl-1H-indol-3-yl)-1-propanone] on the basis of inhibitory actions of the test compounds on the specific binding to GR-65630 as an index.

For data set [2], the target named is T2, serotonin 5-HT3 receptor (Cavia porcellus, UniProt O70212).
T2 construct: longitudinal muscle samples were prepared from the ileums of male or female Hartley guinea pigs; from tissue; host or cells: guinea pig ileum longitudinal muscle
T2 sequence (O70212 20-490): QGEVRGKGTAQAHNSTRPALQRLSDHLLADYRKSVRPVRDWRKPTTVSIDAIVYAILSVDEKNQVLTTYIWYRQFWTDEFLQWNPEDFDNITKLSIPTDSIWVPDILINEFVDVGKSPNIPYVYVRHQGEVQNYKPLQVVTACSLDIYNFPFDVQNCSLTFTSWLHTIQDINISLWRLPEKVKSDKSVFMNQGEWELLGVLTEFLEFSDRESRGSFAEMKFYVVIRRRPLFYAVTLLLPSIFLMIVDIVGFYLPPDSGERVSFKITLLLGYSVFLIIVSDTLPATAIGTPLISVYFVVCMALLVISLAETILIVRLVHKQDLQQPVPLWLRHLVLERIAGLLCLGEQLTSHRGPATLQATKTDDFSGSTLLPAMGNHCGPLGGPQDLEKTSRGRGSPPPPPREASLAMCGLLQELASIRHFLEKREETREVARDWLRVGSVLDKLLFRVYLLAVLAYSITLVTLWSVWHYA
The experiment in a line: Test for serotonin 5-HT3 receptor partially activating action (guinea pig ileum longitudinal muscle contraction). Details: species or system Hartley guinea pigs. As to conditions: for Activating action: guinea pig ileum contraction relative to 2.6 μM serotonin 5-HT; for Antagonistic action: suppression rate of serotonin 5-HT-induced contraction, guinea pig ileum. Here is the method: The serotonin 5-HT3 receptor antagonistic action and the serotonin 5-HT3 receptor activating action of 1-(2-hydroxyethyl)-1-methyl-4-(3,5-dichlorophenylcarbamoyl)piperazinium iodide as the compound of the present invention were determined according to the method of Butler et al. (Br. J. Pharmacol, 94, 397-412, 1988).
About 30-mm longitudinal muscle samples were prepared from the ileums of male or female Hartley guinea pigs (325±25 g). Each sample was hung down in a Magnus tube filled with 10 ml of Krebs solution (pH 7.4, 32° C.) with ventilation of a mixed gas (95% O2, 5% CO2), and loaded with a tension of 1 g, and contractile responses were measured isometrically. The serotonin 5-HT3 receptor activating action of the test compound was represented in terms of a relative value obtained by comparison of the contraction obtained by adding 2.6 μM of serotonin 5-HT to the sample and the contraction of 50% or more obtained within 5 minutes as a percentage based on the maximum contraction. The serotonin 5-HT3 receptor antagonistic action of the test compound was obtained from the contraction suppression rate obtained by adding serotonin 5-HT to the sample.

For data set [3], the system named is cisplatin-induced emesis in beagles. The experiment in a line: Antiemetic action on cisplatin-induced emesis in dogs. It counts as in vivo. As to conditions: for Number of emesis 0 to 120 (minute) / Number of emesis 121 to 360 (minute) / Time of initial occurrence: 0.5 mg/kg i.v. 30 minutes before cisplatin 3 mg/kg i.v., one value per animal. Here is the method:
Actions on cisplatin-induced emesis in beagles of 1-(2-hydroxyethyl)-1-methyl-4-(3,5-dichlorophenylcarbamoyl)piperazinium bromide as the compound of the present invention and 5-chloro-2-(1-homopiperazinyl)-7-methylbenzooxazole (F) (International Publication WO00/31073), which is a benzoxazole derivative having a chemical structure similar to that of the novel urea derivative of the present invention among the known serotonin 5-HT3 receptor partially activating agents, were determined by the following method. The compound of the present invention is mentioned with the example number.
After starvation for 16 hours from one day before the day of the test, beagles (each group consisted of two dogs) were given 300 g of feed pellets and intravenously received cisplatin at a dose of 3 mg/kg 30 minutes later. The test compound was intravenously given 30 minutes before the administration of cisplatin, and frequency and time of emesis were monitored over 6 hours.

Where “and” joins values, the source holds several entries; their conditions need not be identical. Equal values may be shown once.

Usually inhibition stands for the change of the read-out against control, counted positive when it falls. For the compound `C[N+]1(C)CCN(C(=O)Nc2cc(Cl)cc(Cl)c2)CC1` [Example 9, 1,1-Dimethyl-4-(3,5-dichlorophenylcarbamoyl)piperazinium iodide], at serotonin 5-HT3 receptor [1], the inhibition at 1 µM turned out to be 104%.
In the case of `C[N+]1(CCO)CCN(C(=O)Nc2cc(Cl)cc(Cl)c2)CC1.[I-]` [Example 11, 1-(2-Hydroxyethyl)-1-methyl-4-(3,5-dichlorophenylcarbamoyl)-piperazinium iodide], the Activating action on serotonin 5-HT3 receptor [2] (1 μM) came to 0%; on serotonin 5-HT3 receptor [2] (3 μM) it was 4%; on serotonin 5-HT3 receptor [2] (10 μM) it was 14%; on serotonin 5-HT3 receptor [2] (30 μM), 31%; at serotonin 5-HT3 receptor [2] (100 μM) it was 23%. Also, the Antagonistic action came out at 15% on serotonin 5-HT3 receptor [2] (1 μM); 30% on serotonin 5-HT3 receptor [2] (3 μM); 37% at serotonin 5-HT3 receptor [2] (10 μM); 27% on serotonin 5-HT3 receptor [2] (30 μM); 36% at serotonin 5-HT3 receptor [2] (100 μM). Also, at serotonin 5-HT3 receptor [2] (Table 2), the “Serotonin 5-HT3 receptor agonist character (in words)” value was “having both the serotonin 5-HT3 receptor antagonistic action and the serotonin 5-HT3 receptor activating action”. At serotonin 5-HT3 receptor [1], the inhibition at 1 µM came to 104%.
For `CN1CCN(C(=O)Nc2ccc(Cl)c(Cl)c2)CC1` [B, N-(4,5-dichlorophenyl)-4-methylppiperazine-1-carboxyamide, reference compound], at serotonin 5-HT3 receptor [1], the “[3H]-GR65630 binding inhibition rate at 1 μM” value came to 22%.
`CN1CCN(C(=O)Nc2cc(C(F)(F)F)cc(C(F)(F)F)c2)CC1` [C, N-(3,5-trifluoromethylphenyl)-4-methylpiperazine-1-carboxyamide, reference compound]: the “[3H]-GR65630 binding inhibition rate at 1 μM” value at serotonin 5-HT3 receptor [1] worked out at 2%.
As to `C[N+]1(CC2CC2)CCN(C(=O)Nc2cc(Cl)cc(Cl)c2)CC1` [Example 13, 1-Cyclopropylmethyl-1-methyl-4-(3,5-dichlorophenylcarbamoyl)-piperazinium bromide], the inhibition at 1 µM on serotonin 5-HT3 receptor [1] was 98%.
The same measure, in the same setting: to `C=CC[N+]1(C)CCN(C(=O)Nc2cc(Cl)ccc2OC)CC1` [Example 20, 1-Allyl-1-methyl-4-(2-methoxy-5-chlorophenylcarbamoyl)piperazinium iodide] belongs 92%.
As to `Cc1cc(Cl)cc2nc(N3CCCNCC3)oc12` [F, 5-chloro-2-(1-homopiperazinyl)-7-methylbenzooxazole, reference compound], in data set [3], the “Time at which emesis occurred after the administration” value is ≤ 90 min; the “Number of emesis 0 to 120 (minute)” value is 14 and 8; the “Number of emesis 121 to 360 (minute)” value was 15 and 6; the “Time of initial occurrence” value was 88 min and 79 min.
Consider `C=CC[N+]1(C)CCN(C(=O)Nc2cc(Cl)cc(Cl)c2)CC1` [Example 10, 1-Allyl-1-methyl-4-(3,5-dichlorophenylcarbamoyl)piperazinium iodide], for which the inhibition at 1 µM on serotonin 5-HT3 receptor [1] was found to be 105%.
As to `COc1ccc(Cl)cc1NC(=O)N1CCN(C(=O)OC(C)(C)C)CC1` [E, N-(5-chloro-2-methoxyphenyl)-(4-tert-butyloxycarbonylpiperazine)-1-carboxyamide, reference compound], the “[3H]-GR65630 binding inhibition rate at 1 μM” value on serotonin 5-HT3 receptor [1] stood at 5%.
For `COc1ccc(Cl)cc1NC(=O)N1CC[N+](C)(CCO)CC1` [Example 21, 1-(2-Hydroxyethyl)-1-methyl-4-(2-methoxy-5-chlorophenylcarbamoyl)-piperazinium iodide], at serotonin 5-HT3 receptor [1], the inhibition at 1 µM was determined as 98%.
As to `C[N+]1(CCO)CCN(C(=O)Nc2cc(Cl)cc(Cl)c2)CC1.[Br-]` [Example 30, 1-(2-Hydroxyethyl)-1-methyl-4-(3,5-dichlorophenylcarbamoyl)-piperazinium bromide], in data set [3], the “Emesis at the initial stage of administration (action on the central nerve system)” value is given as “no emesis was observed at the initial stage”; the “Suppression of cisplatin-induced emesis in dogs (in words)” value is “effectively suppressed”; the “Number of emesis 0 to 120 (minute)” value came out at 0; the “Number of emesis 121 to 360 (minute)” value was 1 and 0. Further, in data set [3], the “Time of initial occurrence” value is 165 min.
As to `COc1ccc(Cl)cc1NC(=O)N1CC[N+](C)(C)CC1` [Example 19, 1,1-Dimethyl-4-(2-methoxy-5-chlorophenylcarbamoyl)piperazinium iodide], at serotonin 5-HT3 receptor [1], the inhibition at 1 µM was determined as 94%.
As for `CCC[N+]1(C)CCN(C(=O)Nc2cc(Cl)cc(Cl)c2)CC1` [Example 12, 1-Propyl-1-methyl-4-(3,5-dichlorophenylcarbamoyl)piperazinium bromide], the inhibition at 1 µM on serotonin 5-HT3 receptor [1] is 98%.
On the same count and under the same terms, to `C[N+]1(Cc2ccccc2)CCN(C(=O)Nc2cc(Cl)cc(Cl)c2)CC1` [Example 14, 1-Benzyl-1-methyl-4-(3,5-dichlorophenylcarbamoyl)piperazinium bromide] belongs 96%.

Values taken from patent publication US7485646B2, “Serotonin 5-HT3 receptor agonist” (Research Foundation Itsuu Laboratory, priority 2004, dated 2009).
